Like-named read-outs stand apart in the source and are kept apart here.
Assays:
H1975 (EGFR L858/T790M) = H1975 (EGFR L858/T790M) (Homo sapiens, UniProt P00533, L858R/T790M); test: EGFR target modulation in H1975 cell line (phospho-EGFR Y1173 ELISA); assay type: cell-based
Method in brief: (§1)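 3 h compound exposure of cells in 10% FBS/RPMI, 37 °C; lysis on ice 20 min; lysate captured overnight at 4 °C on anti-EGFR-coated plates; anti-rabbit-HRP, chemiluminescence.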

H3255 (EGFR L858R) = H3255 (EGFR L858R) (Homo sapiens, UniProt P00533, L858R); test: EGFR target modulation in H3255 cell line (phospho-EGFR Y1173 ELISA); assay type: cell-based
Method in brief: as §1

EGFR(L858R/T790M) = biological target: T1, EGFR(L858R/T790M) (Homo sapiens, UniProt P00533, L858R/T790M); test: EGFR biochemical assay (HTRF), IC50 determinations
T1 construct: purchased from Carna (GST-a.a. 669-1210)
Method in brief: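 HTRF kinase reaction with biotin-TK peptide at room temperature, quenched with EDTA at 60 min and detected with PT66K/SAXL after 1 h. Without preincubation, enzyme starts the reaction with compound, ATP and peptide present. With preincubation, compound, enzyme and peptide sit at room temperature for a set time before ATP is added.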

HCC827 (Del E746-A750) = HCC827 (Del E746-A750) (Homo sapiens, UniProt P00533, DEL746-750); test: EGFR target modulation in HCC827 cell line (phospho-EGFR Y1173 ELISA); assay type: cell-based
Procedure: EGFR Target Modulation in H1975, H3255 and HCC827 Cell Lines Tissue Culture. Cells were maintained in 10% FBS/RPMI supplemented with 100 μg/ml Penicillin/Streptomycin (Hyclone #SH30236.01). […] The cells were allowed to incubate overnight in a 37° C., 5% CO2 humidified tissue culture incubator. […] The serial diluted compounds were transferred to the plate containing cells by using a 50 nl Pin Head device (Perkin Elmer) and the cells were placed back in the incubator for 3 hours. Phospho-EGFR ([…]) Target Modulation Assay. The media was reduced to 20 ul using a Bio-Tek ELx 405 SelectTM plate washer. […] The plates were shaken at 4° C. for 20 minutes. An aliquot of 25 ul from each well was transferred to pEGFR(Y1173) ELISA plates for analysis. Phospho-EGFR ([…]) ELISA. Solid white high-binding ELISA plates (Greiner #781074) were coated with 5 ug/ml anti-EGFR capture antibody (R&D Systems #AF231) overnight in 50 mM carbonate/bicarbonate pH 9.5 buffer. Plates were blocked with 1% BSA (Sigma #A7030) in PBS for 1 hour at room temperature. Wash steps were carried out with a Bio-Tek ELx405 SelectTM using 4 cycles of 100 ul TBS-T (20 mM Tris, 137 mM NaCl, 0.05% Tween-20) per well. […] Lysis was allowed to occur for 20 minutes on ice. A 25 ul aliquot was added to each well of the blocked ELISA plate and incubated overnight at 4° C. with gentle shaking. […] After washing, 1:2,000 anti-rabbit-HRP (Cell Signaling #7074) in 0.2% BSA/TBS-T was added and incubated for 1 hour at room temperature. Chemiluminescent detection was carried out with SuperSignal ELISA Pico substrate (ThermoScientific #37069). Signal was read on EnVision plate reader using built-in UltraLUM setting. Data Analysis. Control cells treated with EGF were set to 100% maximum response. […] With these parameters, the IC50's for each compound in each cell line was calculated using non-linear curve fitting analysis.

HEKn (EGFR WT) = HEKn (EGFR WT) (Homo sapiens, UniProt P00533); test: EGFR target modulation in HEKn (EGFR-WT) cell line (phospho-EGFR Y1173 ELISA); assay type: cell-based; conditions: value outside parentheses
Sequence of HEKn (EGFR WT) (P00533 25-1210): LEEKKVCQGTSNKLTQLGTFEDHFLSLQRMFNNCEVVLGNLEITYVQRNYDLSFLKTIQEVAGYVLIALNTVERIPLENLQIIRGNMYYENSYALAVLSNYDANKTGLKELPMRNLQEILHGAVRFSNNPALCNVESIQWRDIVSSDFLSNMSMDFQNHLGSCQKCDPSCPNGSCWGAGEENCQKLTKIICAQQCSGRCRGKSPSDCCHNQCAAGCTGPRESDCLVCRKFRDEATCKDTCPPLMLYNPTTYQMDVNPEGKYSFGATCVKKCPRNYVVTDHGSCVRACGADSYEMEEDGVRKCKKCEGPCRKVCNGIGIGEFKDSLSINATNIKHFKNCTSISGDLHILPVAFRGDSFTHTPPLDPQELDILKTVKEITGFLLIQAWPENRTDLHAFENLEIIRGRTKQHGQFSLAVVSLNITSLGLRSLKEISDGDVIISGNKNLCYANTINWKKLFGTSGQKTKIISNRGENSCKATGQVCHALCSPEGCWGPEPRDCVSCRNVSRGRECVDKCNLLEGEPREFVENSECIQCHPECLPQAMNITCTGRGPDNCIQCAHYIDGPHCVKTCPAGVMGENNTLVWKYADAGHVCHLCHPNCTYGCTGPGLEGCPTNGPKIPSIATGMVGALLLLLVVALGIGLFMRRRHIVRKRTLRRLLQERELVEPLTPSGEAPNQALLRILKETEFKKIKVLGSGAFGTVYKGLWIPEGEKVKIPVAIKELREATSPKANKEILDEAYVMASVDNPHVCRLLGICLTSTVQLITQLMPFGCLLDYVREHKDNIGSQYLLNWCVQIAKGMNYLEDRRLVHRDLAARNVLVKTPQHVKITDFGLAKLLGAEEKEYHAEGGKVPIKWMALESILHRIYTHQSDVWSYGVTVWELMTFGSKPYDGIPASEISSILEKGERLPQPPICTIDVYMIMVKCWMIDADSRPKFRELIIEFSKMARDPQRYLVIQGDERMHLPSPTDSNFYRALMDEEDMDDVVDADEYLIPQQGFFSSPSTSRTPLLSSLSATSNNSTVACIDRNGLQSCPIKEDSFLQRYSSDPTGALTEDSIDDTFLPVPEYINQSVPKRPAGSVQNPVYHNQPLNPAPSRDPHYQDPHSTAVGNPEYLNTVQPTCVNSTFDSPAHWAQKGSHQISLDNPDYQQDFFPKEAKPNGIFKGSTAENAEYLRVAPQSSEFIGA
Method in brief: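 Primary neonatal human keratinocytes (EGFR WT) were exposed to serially diluted compounds for 3 h, then lysed on ice. Phospho-EGFR Y1173 was measured by chemiluminescent sandwich ELISA using anti-EGFR capture.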

[1] = biological target: human EGFR WT (NIH/3T3 cells, EGF-induced) (Homo sapiens, UniProt P00533); test: EGFR target modulation in engineered NIH/3T3 cell lines (phospho-EGFR Y1068 AlphaLISA), EGFR WT; assay type: cell-based; conditions: engineered NIH/3T3 cells, read-out: NIH3T3 IC50 (μM) EGFR (WT)
Sequence of human EGFR WT (NIH/3T3 cells, EGF-induced) (P00533 25-1210): as above
Method in brief: (§2)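 Engineered NIH/3T3 cells were plated overnight, then exposed to a 12-point 1:3 compound series (from a 10 μM stock) for 3 hours at 37 °C. WT-expressing cells alone were stimulated with 50 ng/ml EGF for 5 minutes before lysis. IC50s came from non-linear fits of AlphaLISA signal.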

[2] = biological target: human EGFR L858R/T790M (NIH/3T3 cells) (Homo sapiens, UniProt P00533, L858R/T790M); test: EGFR target modulation in engineered NIH/3T3 cell lines (phospho-EGFR Y1068 AlphaLISA), EGFR L858R/T790M; assay type: cell-based; conditions: engineered NIH/3T3 cells, read-out: NIH3T3 IC50 (μM) EGFR (L858R/T790M)
Sequence of human EGFR L858R/T790M (NIH/3T3 cells) (P00533 25-1210 T790M/L858R): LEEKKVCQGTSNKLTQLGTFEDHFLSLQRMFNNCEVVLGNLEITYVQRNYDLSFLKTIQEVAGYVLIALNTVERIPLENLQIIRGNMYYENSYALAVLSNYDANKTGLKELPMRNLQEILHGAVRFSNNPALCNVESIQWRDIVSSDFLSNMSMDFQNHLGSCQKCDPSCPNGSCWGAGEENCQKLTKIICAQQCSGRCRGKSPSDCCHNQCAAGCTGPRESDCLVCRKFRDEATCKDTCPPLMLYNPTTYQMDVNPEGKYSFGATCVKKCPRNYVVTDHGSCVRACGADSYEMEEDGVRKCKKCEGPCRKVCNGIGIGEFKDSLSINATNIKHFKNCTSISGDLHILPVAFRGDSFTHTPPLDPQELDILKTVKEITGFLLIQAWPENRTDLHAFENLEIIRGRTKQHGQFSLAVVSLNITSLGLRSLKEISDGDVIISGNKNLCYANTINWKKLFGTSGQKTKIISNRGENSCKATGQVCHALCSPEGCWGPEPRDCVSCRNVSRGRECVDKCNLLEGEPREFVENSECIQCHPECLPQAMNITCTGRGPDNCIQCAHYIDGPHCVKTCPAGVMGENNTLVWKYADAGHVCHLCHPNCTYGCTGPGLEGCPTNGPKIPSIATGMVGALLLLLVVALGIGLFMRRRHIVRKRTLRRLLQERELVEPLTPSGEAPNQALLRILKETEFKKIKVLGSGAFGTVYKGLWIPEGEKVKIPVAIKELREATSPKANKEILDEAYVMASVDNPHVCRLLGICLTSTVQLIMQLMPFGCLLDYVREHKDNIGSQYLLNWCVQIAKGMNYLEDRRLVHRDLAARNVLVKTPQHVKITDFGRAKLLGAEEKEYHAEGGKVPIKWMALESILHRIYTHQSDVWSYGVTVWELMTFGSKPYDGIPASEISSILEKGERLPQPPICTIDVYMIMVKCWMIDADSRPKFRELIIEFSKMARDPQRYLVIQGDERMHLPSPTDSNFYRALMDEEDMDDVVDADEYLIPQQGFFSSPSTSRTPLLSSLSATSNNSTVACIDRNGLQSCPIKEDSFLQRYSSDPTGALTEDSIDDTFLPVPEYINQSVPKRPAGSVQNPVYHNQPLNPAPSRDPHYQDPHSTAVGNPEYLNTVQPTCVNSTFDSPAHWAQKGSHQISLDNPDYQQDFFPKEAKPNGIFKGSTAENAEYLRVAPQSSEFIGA
Method in brief: as §2

[3] = biological target: human EGFR L858R (NIH/3T3 cells) (Homo sapiens, UniProt P00533, L858R); test: EGFR target modulation in engineered NIH/3T3 cell lines (phospho-EGFR Y1068 AlphaLISA), EGFR L858R; assay type: cell-based; conditions: engineered NIH/3T3 cells, read-out: NIH3T3 IC50 (μM) EGFR (L858R)
Method in brief: as §2

[4] = EGFR (L858R/T790M) with 90 min pre-incubation, read-out: IC50 (μM) Column B
[5] = EGFR (L858R/T790M) with no pre-incubation, read-out: IC50 (μM) Column A

Sequence of H1975 (EGFR L858/T790M) (P00533 25-1210 T790M/L858R): as above

Row | IC50 (H1975 (EGFR L858/T790M)) | IC50 (H3255 (EGFR L858R)) | IC50 (EGFR(L858R/T790M); [4]) | IC50 (EGFR(L858R/T790M); [5]) | IC50 (HCC827 (Del E746-A750)) | IC50 (HEKn (EGFR WT)) | IC50 [1] | IC50 [2] | IC50 [3] | Structure (SMILES)
1 | 58 nM | 73 nM | 0.005 µM | 0.055 µM | 9 nM | 2270 nM | – | – | – | C/C=C/C(=O)N1CCCC[C@@H](n2c(NC(=O)c3ccnc(C)c3)nc3cc(CN4CCCC4)cc(C)c32)C1 [Example 17-164]
2 | 7 nM | 12 nM | < 0.001 µM | 0.008 µM | 5 nM | 590 nM | – | – | – | Cc1cc(C(=O)Nc2nc3cccc(C)c3n2[C@@H]2CCCCN(C(=O)/C=C/CN3CCCC3)C2)ccn1 [Example 3-9]
3 | 10 nM | 37 nM | < 0.001 µM | 0.005 µM | – | 313 nM | 0.167 µM | 0.004 µM | 0.003 µM | Cc1cccc2nc(NC(=O)c3ccc(F)c(F)c3)n(C3CCCCN(C(=O)/C=C/CN(C)C)C3)c12 (stereo not shown) [Example 17-30]
4 | 2 nM | 1 nM | < 0.001 µM | 0.003 µM | – | 24 nM | 0.008 µM | 0.001 µM | 0.001 µM | Cc1cccc2nc(NC(=O)c3ccc(Cl)nc3)n([C@@H]3CCCCN(C(=O)/C=C/CN(C)C)C3)c12 [Example 17-77]
5 | 10 nM | 29 nM | < 0.001 µM | 0.007 µM | – | 370 nM | 0.187 µM | 0.007 µM | 0.007 µM | Cc1cc(C(=O)Nc2nc3cccc(C)c3n2[C@@H]2CCCCN(C(=O)/C=C/CN(C)C)C2)cnn1 [Example 17-82]
6 | < 1 nM | < 1 nM | < 0.001 µM | < 0.001 µM | – | 4 nM | 0.002 µM | < 0.001 µM | < 0.001 µM | Cc1ccccc1-c1cc(C(=O)Nc2nc3cccc(C)c3n2[C@@H]2CCCCN(C(=O)/C=C/CN(C)C)C2)ccn1 [Example 17-80]
7 | 105 nM | 156 nM | 0.006 µM | 0.135 µM | – | > 10000 nM | 1.4 µM | 0.058 µM | 0.062 µM | Cc1cc(C(=O)Nc2nc3cccc(C)c3n2[C@@H]2CCCN(C(=O)/C=C/CN(C)C)C2)ccn1 [Example 17-4]
8 | 2 nM | 11 nM | < 0.001 µM | 0.003 µM | – | 261 nM | 0.076 µM | 0.002 µM | 0.004 µM | Cc1cc(C(=O)Nc2nc3cccc(C)c3n2[C@@H]2CCCCN(C(=O)/C=C/CN(C)C)C2)cc(Cl)n1 [Example 17-74]
9 | 10 nM | 7 nM | < 0.001 µM | 0.007 µM | – | 380 nM | 0.122 µM | 0.004 µM | 0.005 µM | COc1cc(C(=O)Nc2nc3cccc(C)c3n2C2CCCCN(C(=O)/C=C/CN(C)C)C2)ccn1 (stereo not shown) [Example 17-48]
10 | 2 nM | 13 nM | < 0.001 µM | < 0.002 µM | – | 206 nM | 0.053 µM | 0.002 µM | 0.002 µM | Cc1cccc2nc(NC(=O)c3cccc(C#N)c3)n(C3CCCCN(C(=O)/C=C/CN(C)C)C3)c12 (stereo not shown) [Example 17-42]
11 | 2 nM | 3 nM | < 0.001 µM | 0.002 µM | – | 134 nM | 0.029 µM | 0.002 µM | 0.002 µM | COc1cc(C(=O)Nc2nc3cccc(C)c3n2[C@@H]2CCCCN(C(=O)/C=C/CN(C)C)C2)ccn1 [Example 17-71]

Continued, compound first:

Row | Structure (SMILES) | IC50 (H1975 (EGFR L858/T790M)) | IC50 (H3255 (EGFR L858R)) | IC50 (EGFR(L858R/T790M); [4]) | IC50 (EGFR(L858R/T790M); [5]) | IC50 (HCC827 (Del E746-A750)) | IC50 (HEKn (EGFR WT)) | IC50 [1] | IC50 [2] | IC50 [3]
12 | COc1cc2nc(NC(=O)c3ccnc(C)c3)n([C@@H]3CCCCN(C(=O)/C=C/CN(C)C)C3)c2cc1Cl [Example 17-178] | 117 nM | 106 nM | 0.006 µM | 0.097 µM | 38 nM | 4200 nM | – | – | –
13 | C/C=C/C(=O)N1CCCC[C@@H](n2c(NC(=O)c3cc(C)nc(C)c3)nc3cc(CN4CC[C@H](OC)C4)cc(C)c32)C1 [Example 17-162] | 38 nM | 145 nM | 0.004 µM | 0.054 µM | 23 nM | 4600 nM | – | – | –
14 | C=CC(=O)N1CCCC[C@@H](n2c(NC(=O)c3ccnnc3)nc3cccc(OC)c32)C1 [Example 17-84] | 37 nM | 137 nM | 0.003 µM | 0.049 µM | – | 1660 nM | 1.94 µM | 0.028 µM | 0.04 µM
15 | Cc1cccc2nc(NC(=O)c3cccc(C(F)(F)F)c3)n(C3CCCCN(C(=O)/C=C/CN(C)C)C3)c12 (stereo not shown) [Example 17-25] | 2 nM | 26 nM | < 0.001 µM | < 0.002 µM | – | 251 nM | 0.057 µM | < 0.001 µM | 0.002 µM
16 | Cc1cccc2nc(NC(=O)c3ccccc3)n(C3CCCCN(C(=O)/C=C/CN(C)C)C3)c12 (stereo not shown) [Example 17-40] | 7 nM | 130 nM | < 0.001 µM | 0.007 µM | – | 760 nM | 0.49 µM | 0.008 µM | 0.017 µM
17 | CC(C)Oc1cccc2nc(NC(=O)c3ccnnc3)n([C@@H]3CCCCN(C(=O)/C=C/CN(C)C)C3)c12 [Example 17-85] | 38 nM | 111 nM | 0.003 µM | 0.038 µM | – | 2080 nM | 0.6 µM | 0.02 µM | 0.043 µM
18 | C=CC(=O)N1CCCC[C@@H](n2c(NC(=O)c3ccccc3)nc3cccc(CN(C)C)c32)C1 [Example 17-129] | 1 nM | 4 nM | < 0.001 µM | 0.002 µM | – | 28 nM | 0.045 µM | 0.002 µM | 0.002 µM
19 | Cc1cccc2nc(NC(=O)c3cc(F)c(F)c(F)c3)n(C3CCCCN(C(=O)/C=C/CN(C)C)C3)c12 (stereo not shown) [Example 17-33] | 5 nM | 65 nM | < 0.001 µM | 0.008 µM | – | 259 nM | 0.224 µM | 0.005 µM | 0.002 µM
20 | Cc1ncc(C(=O)Nc2nc3cccc(C)c3n2C2CCCCN(C(=O)/C=C/CN(C)C)C2)s1 (single isomer, unassigned) [Example 21-8B] | 4 nM | 2 nM | < 0.001 µM | 0.006 µM | – | 95 nM | 0.016 µM | 0.002 µM | 0.001 µM
21 | C=CC(=O)N1CCCC[C@@H](n2c(NC(=O)c3ccccc3)nc3cccc(CN4CCS(=O)(=O)CC4)c32)C1 [Example 17-132] | 9 nM | 108 nM | 0.001 µM | 0.041 µM | – | 2850 nM | 2.87 µM | 0.012 µM | 0.047 µM

From patent US9440957B2, “Compounds and compositions for modulating EGFR Activity” (Novartis AG, priority 2012, dated 2016)
